Here are results for 6 molecules from PubChem BioAssay AID651642 (Sanford-Burnham Center for Chemical Genomics, 2012).

pIC50: −log10 of the molar value. A value given as a limit tells only on which side of the number the result lay.

One experiment relates to H9c2. Kind of experiment: protection of cardiomyocytes from stress damage, SAR follow-up, cell-based, panel, H9c2 and HL-1, H2O2, 2-deoxyglucose, ATP luminescence (AID 651642).
A further experiment relates to HL-1. The experiment is described as above.
Setting [1] is: H9c2/HL-1 cardiomyocyte 2-deoxyglucose damage, mean of runs, with 2-deoxyglucose, mean IC50 across panel.
[2] abbreviates: H9c2/HL-1 cardiomyocyte 2-deoxyglucose damage, run 1, with 2-deoxyglucose.
The mark [3] stands for this setting: H9c2/HL-1 cardiomyocyte 2-deoxyglucose damage, run 2, with 2-deoxyglucose.
Where [4] appears, read: H9c2/HL-1 cardiomyocyte 2-deoxyglucose damage, run 3, with 2-deoxyglucose.
The mark [5] stands for this setting: H9c2/HL-1 cardiomyocyte 2-deoxyglucose damage, run 4, with 2-deoxyglucose.
Where [6] appears, read: H9c2/HL-1 cardiomyocyte H2O2 oxidative damage, run 1, with H2O2.
The mark [7] stands for this setting: H9c2/HL-1 cardiomyocyte H2O2 oxidative damage, run 2, with H2O2.
The mark [8] stands for this setting: H9c2/HL-1 cardiomyocyte H2O2 oxidative damage, run 3, with H2O2.
Setting [9] is: H9c2/HL-1 cardiomyocyte H2O2 oxidative damage, run 4, with H2O2.
[10] abbreviates: H9c2/HL-1 cardiomyocyte H2O2 oxidative damage, mean of runs, with H2O2, mean IC50 across panel.

Turning to `COc1ccc2c(c1OC)C(=O)N1c3ccccc3C(=O)N(Cc3cccc(F)c3)C21` (configuration not stated), the negative-log IC50 (pIC50) with H9c2 (setting [1]) was less than 4.10; with H9c2 (setting [2]) it was less than 4.10; in the experiment on H9c2 (setting [3]), less than 4.10; in the experiment with H9c2 (setting [4]), less than 4.10; in the experiment on H9c2 (setting [5]), less than 4.10; in the experiment on H9c2 (setting [6]) it was 5.94. Also, the pIC50 with H9c2 (setting [7]) is 5.81; in the experiment on H9c2 (setting [8]), less than 4.10; with H9c2 (setting [9]), less than 4.10; in the experiment on HL-1 (setting [1]), 5.18; in the experiment with HL-1 (setting [2]) it was 5.46; with HL-1 (setting [3]) it was 5.37. Moreover, the negative-log IC50 (pIC50) with HL-1 (setting [4]) was 5.04; in the experiment on HL-1 (setting [5]) it was 5.03; in the experiment with HL-1 (setting [10]), less than 4.10; in the experiment with HL-1 (setting [6]) it was less than 4.10; in the experiment with HL-1 (setting [7]), less than 4.10; with HL-1 (setting [8]), less than 4.10. Moreover, in the experiment on HL-1 (setting [9]), the pIC50 was less than 4.10.

Take `COc1cc(-c2cc(C(=O)Nc3cccc(C(C)=O)c3)c3ccccc3n2)cc(OC)c1OC`: the negative-log IC50 (pIC50) in the experiment with H9c2 (setting [1]) is less than 4.10; in the experiment with H9c2 (setting [2]) it was less than 4.10; in the experiment on H9c2 (setting [3]), less than 4.10; in the experiment with H9c2 (setting [4]), less than 4.10; with H9c2 (setting [5]), less than 4.10; in the experiment with H9c2 (setting [6]) it was 5.43. For the same molecule, the pIC50 in the experiment on H9c2 (setting [7]) is 5.39; in the experiment with H9c2 (setting [8]), less than 4.10; in the experiment on H9c2 (setting [9]), 5.43; with HL-1 (setting [1]), 5.06; with HL-1 (setting [2]), 5.25; in the experiment on HL-1 (setting [3]), 5.20. Also, the pIC50 with HL-1 (setting [4]) was 5.06; in the experiment with HL-1 (setting [5]), 4.86; in the experiment with HL-1 (setting [10]), 5.15; in the experiment with HL-1 (setting [6]) it was 5.25; in the experiment on HL-1 (setting [7]), 5.25; in the experiment on HL-1 (setting [8]), 5.17. This molecule showed a negative logarithm of the IC50 (pIC50) in the experiment with HL-1 (setting [9]) of 4.99.

Regarding `CCOC(=O)c1cccc(NC(=O)c2cc(-c3cc(OC)c(OC)c(OC)c3)nc3c(Cl)cccc23)c1`, the pIC50 with H9c2 (setting [1]), with H9c2 (setting [2]), in the experiment with H9c2 (setting [3]), in the experiment on H9c2 (setting [4]), in the experiment with H9c2 (setting [5]) and with H9c2 (setting [6]) was less than 4.10 throughout. The negative-log IC50 (pIC50) in the experiment with H9c2 (setting [7]) was 4.52; with H9c2 (setting [8]), less than 4.10; in the experiment on H9c2 (setting [9]), less than 4.10; with HL-1 (setting [1]), less than 4.10; with HL-1 (setting [2]) it was less than 4.10; in the experiment with HL-1 (setting [3]), less than 4.10. Further, the negative logarithm of the IC50 (pIC50) was less than 4.10 with HL-1 (setting [4]); less than 4.10 with HL-1 (setting [5]); less than 4.10 in the experiment with HL-1 (setting [6]); 4.96 in the experiment with HL-1 (setting [7]); less than 4.10 in the experiment with HL-1 (setting [8]); less than 4.10 in the experiment with HL-1 (setting [9]).

For `COc1ccc2c(c1OC)C(=O)N1c3ccccc3C(=O)N(Cc3ccccc3)C21` (configuration not stated), the negative logarithm of the IC50 (pIC50) is 4.35 in the experiment with H9c2 (setting [2]); 4.31 in the experiment with H9c2 (setting [3]); less than 4.10 in the experiment with H9c2 (setting [4]); less than 4.10 with H9c2 (setting [5]); 5.45 with H9c2 (setting [6]); 5.39 in the experiment with H9c2 (setting [7]). Moreover, the pIC50 was less than 4.10 with H9c2 (setting [8]); less than 4.10 with H9c2 (setting [9]); 4.99 in the experiment with HL-1 (setting [1]); 5.45 with HL-1 (setting [2]); 5.36 in the experiment with HL-1 (setting [3]); 4.86 in the experiment on HL-1 (setting [4]). For the same molecule, the pIC50 in the experiment on HL-1 (setting [5]) was 4.72; in the experiment on HL-1 (setting [10]), less than 4.10; in the experiment with HL-1 (setting [6]), less than 4.10; with HL-1 (setting [7]), less than 4.10; in the experiment with HL-1 (setting [8]) it was less than 4.10; with HL-1 (setting [9]), less than 4.10.

For the molecule `COc1cc(-c2cc(C(=O)Nc3cccc(C(N)=O)c3)c3ccccc3n2)cc(OC)c1OC`, the negative logarithm of the IC50 (pIC50) is 4.51 in the experiment on H9c2 (setting [2]); 4.50 in the experiment on H9c2 (setting [3]); less than 4.10 in the experiment on H9c2 (setting [4]); less than 4.10 with H9c2 (setting [5]); 5.62 with H9c2 (setting [10]); 5.65 in the experiment with H9c2 (setting [6]). Further, the negative logarithm of the IC50 (pIC50) in the experiment on H9c2 (setting [7]) is 5.62; with H9c2 (setting [8]), 5.60; in the experiment on H9c2 (setting [9]), 5.59; in the experiment on HL-1 (setting [1]), 4.85; in the experiment with HL-1 (setting [2]), 5.14; in the experiment on HL-1 (setting [3]), 5.09. The pIC50 is 4.72 in the experiment with HL-1 (setting [4]); 4.66 in the experiment with HL-1 (setting [5]); 5.30 in the experiment with HL-1 (setting [10]); 5.35 with HL-1 (setting [6]); 5.23 in the experiment with HL-1 (setting [7]); 5.64 with HL-1 (setting [8]). Moreover, the pIC50 in the experiment on HL-1 (setting [9]) was 5.15.

As for `COc1cc(-c2cc(C(=O)Nc3cccc(C(=O)Nc4ccccc4)c3)c3ccccc3n2)cc(OC)c1OC`, the negative-log IC50 (pIC50) in the experiment with H9c2 (setting [1]) was 5.33; in the experiment on H9c2 (setting [2]), 5.24; with H9c2 (setting [3]), 5.24; with H9c2 (setting [4]), 5.45; in the experiment with H9c2 (setting [5]), 5.41; in the experiment on H9c2 (setting [10]), 5.89. For the same molecule, the pIC50 in the experiment on H9c2 (setting [6]) was 5.81; in the experiment on H9c2 (setting [7]) it was 5.71; in the experiment on H9c2 (setting [8]), 6.14; in the experiment with H9c2 (setting [9]) it was 6.05; in the experiment on HL-1 (setting [1]), 5.92; in the experiment with HL-1 (setting [2]), 6.15. For the same molecule, the negative-log IC50 (pIC50) in the experiment with HL-1 (setting [3]) was 6.10; with HL-1 (setting [4]), 5.84; with HL-1 (setting [5]) it was 5.74; with HL-1 (setting [6]), less than 4.10; in the experiment with HL-1 (setting [7]), 5.81; with HL-1 (setting [8]) it was 5.77. The same molecule showed a negative-log IC50 (pIC50) in the experiment on HL-1 (setting [9]) of 5.67.
